According to patent publication US6403816B1 (Dabur Research Foundation, priority 1997, dated 2002):

Tests used:
[1] = tested on: A431, BC-1, COL-2, HT1080, KB, LNCaP, LU-1, U373, ZR-75-1; settings: cited from earlier work
[2] = tested on: human melanoma cell lines, Mel-1, Mel-2, and Mel-4; settings: Mel-1, Mel-2, Mel-4; cited from earlier work
[3] = tested on: MEL-2 cells; settings: cited from earlier work
[4] = tested on: DU145; assay: Tumor cell cytotoxicity assay, prostate; assay type: cell-based; settings: for Prostate ECS Ratio: ED50 DU145 / ED50 ECV304; for Prostate DU145 (ED50): concentration causing 50% cytotoxicity
Text: (§1) The cytotoxicity assays for tumor cells have been described in detail in our application Ser. No. 09/040,856 filed in U.S. on Mar. 18, 1998.

[5] = tested on: PA-1; assay: Tumor cell cytotoxicity assay, ovary; assay type: cell-based; settings: for Ovary ECS Ratio: ED50 PA-1 / ED50 ECV304; for Ovary PA-1 (ED50): concentration causing 50% cytotoxicity
Text: as §1

[6] = tested on: L132; assay: Tumor cell cytotoxicity assay, lung; assay type: cell-based; settings: for Lung ECS Ratio: ED50 L132 / ED50 ECV304; for Lung L132 (ED50): concentration causing 50% cytotoxicity
Text: as §1

[7] = tested on: ECV304; assay: ECV304 endothelial cell proliferation, MTT assay; assay type: cell-based, human; settings: concentration causing 50% cytotoxicity; MTT after 72 hours
Method: 30 μl of ECV304 cell suspension (50×10^4 cells/ml in RPMI 1640 containing 10% FBS) followed by 150 μl of medium was added to the wells of a 96-well tissue culture plate (Nunc, Denmark) and incubated (37° C., 5% CO2) overnight. […] Each concentration was plated in triplicates. 20μl of medium alone was added to control wells. After 72 hours of incubation an MTT assay (Mosmann, 1983) was performed and percentage inhibition in proliferation of treated cells was calculated with respect to control cells.

[8] = tested on: HT-29; assay: Tumor cell cytotoxicity assay, colon; assay type: cell-based; settings: for Colon ECS Ratio: ED50 HT-29 / ED50 ECV304; for Colon HT-29 (ED50): concentration causing 50% cytotoxicity
Text: as §1

[9] = tested on: ECV304; assay: Tube-like-structure (TLS) formation of ECV304 cells on Matrigel; assay type: cell-based, human; settings: 24-48 hours
Method: Matrigel (70 μl) was placed into each well of a 96-well culture plate at 4° C. and was allowed to polymerize by incubation at 37° C. for 30 min. ECV304 (1×10^4) cells were seeded on the Matrigel in 200 μl DMEM containing 10% FBS. […] Five different phase-contrast microscopic fields (4×) were viewed and total tube area of the tube-like-structures (TLS) measured using Video Pro 32 Image Analysis system. Percent reduction in total tube area was given as the mean of the data from five fields. Percent inhibition of TLS was calculated with reference to Controls(no drug).

SMILES | ED50, other cell lines tested [1] | Growth of melanoma cell lines [2] | In vitro growth of MEL-2 cells [3] | Prostate ECS Ratio [4] | Prostate DU145 (ED50) [4] [µg/mL] | Ovary ECS Ratio [5] | Ovary PA-1 (ED50) [5] [µg/mL] | Lung ECS Ratio [6] | Lung L132 (ED50) [6] [µg/mL] | Endothelial ECV304 (ED50) [7] [µg/mL] | Colon ECS Ratio [8] | Colon HT-29 (ED50) [8] [µg/mL] | % reduction in total tube area ([9]; 0.5 μg/ml) [%] | % reduction in total tube area ([9]; 2 μg/ml) [%] | % reduction in total tube area ([9]; 4 μg/ml) [%]
C=C(C)[C@@H]1CC[C@]2(C(=O)O)CC[C@]3(C)[C@H](CC[C@@H]4[C@@]5(C)CC[C@H](O)C(C)(C)[C@@H]5CC[C@]43C)[C@@H]12 [Betulinic acid] | greater than 20 μg/ml | inhibited significantly | inhibit in vitro growth | – | – | – | – | – | – | – | – | – | – | – | –
C=C(C)C1CCC2(C(=O)O)CCC3(C)C(CCC4C5(C)CCC(=NNc6ccccc6)C(C)(C)C5CCC43C)C12 (stereo not drawn) [MJ353-RS] | – | – | – | 2.7 | 6.5 | 2.08 | 5 | 1.9 | 4.5 | 2.4 | 4.2 | >10 | – | – | –
COC(=O)CCOC(=O)C12CCC(C(C)(Br)CBr)C1C1CCC3C4(C)CC(Br)C(=O)C(C)(C)C4CCC3(C)C1(C)CC2 (stereo not drawn) [MJ548-RS] | – | – | – | >4 | >10 | 1.56 | 3.9 | >4 | >10 | 2.5 | 4.0 | >10 | – | – | –
CC(C)C1CCC2(C(=O)O)CCC3(C)C(CCC4C5(C)CCC(NNc6ccccc6)C(C)(C)C5CCC43C)C12 (stereo not drawn) [MJ878-RS] | – | – | – | 19.8 | 9.9 | 7.0 | 3.5 | 1.6 | 0.8 | 0.5 | 3.5 | 1.75 | – | – | –
COc1ccc(NNC2CCC3(C)C(CCC4(C)C3CCC3C5C(C(C)C)CCC5(C(=O)O)CCC34C)C2(C)C)cc1 (stereo not drawn) [MJ912-RS] | – | – | – | 21.1 | 8.5 | – | – | >10 | >4 | 0.4 | 0.87 | 0.35 | – | – | –
CC(C)C1CCC2(C(=O)O)CCC3(C)C(CCC4C5(C)CCC(OC(=O)c6cc(F)cc(F)c6)C(C)(C)C5CCC43C)C12 (stereo not drawn) [MJ935-RS] | – | – | – | 4.5 | 3.2 | – | – | 1.7 | 1.2 | 0.7 | >14.3 | >10 | – | – | –
CC(C)C1CCC2(C(=O)O)CCC3(C)C(CCC4C5(C)CCC(OC(=O)c6ccc(F)cc6F)C(C)(C)C5CCC43C)C12 (stereo not drawn) [MJ937-RS] | – | – | – | 3.5 | 2.5 | 2.3 | 1.6 | 1.5 | 1.1 | 0.7 | 2.4 | 1.7 | 16.7 | 21 | 21.7
C=C(C)C1CCC2(C(=O)O)CCC3(C)C(CCC4C5(C)CCC(OC(=O)c6cccc(C(F)(F)F)c6)C(C)(C)C5CCC43C)C12 (stereo not drawn) [MJ939-RS] | – | – | – | >11.1 | >10 | >4.4 | >4 | 3.0 | 2.7 | 0.9 | >11.1 | >10 | – | – | –
CC(C)C1CCC2(C(=O)O)CCC3(C)C(CCC4C5(C)CCC(OC(=O)c6ccccc6C(F)(F)F)C(C)(C)C5CCC43C)C12 (stereo not drawn) [MJ943-RS] | – | – | – | >1.5 | >4 | >1.53 | >4 | 1.5 | 4 | 2.6 | 3.84 | >10 | – | – | –
CC(C)C1CCC2(C(=O)O)CCC3(C)C(CCC4C5(C)CCC(N=Cc6ccc(F)c(F)c6)C(C)(C)C5CCC43C)C12 (stereo not drawn) [MJ998-RS] | – | – | – | 6.2 | 2.2 | 3.7 | 1.3 | 7.1 | 2.5 | 0.35 | 11.4 | 4 | 21.1 | 13.4 | 33.4
CC(C)C1CCC2(C(=O)O)CCC3(C)C(CCC4C5(C)CCC(N=Cc6ccc(F)cc6F)C(C)(C)C5CCC43C)C12 (stereo not drawn) [MJ1065-RS] | – | – | – | 1.04 | 2.5 | 0.54 | 1.3 | 1.4 | 3.4 | 2.4 | 2.04 | 4.9 | 23.4 | 16.7 | 46.7
CC(C)C1CCC2(C(=O)O)CCC3(C)C(CCC4C5(C)CCC(=NOCc6ccc([N+](=O)[O-])cc6)C(C)(C)C5CCC43C)C12 (stereo not drawn) [MJ1098-RS] | – | – | – | 2.5 | 1.5 | 2.7 | 1.6 | 2.1 | 1.3 | 0.6 | 4.3 | 2.6 | 15 | 7.5 | 10
C=CC(=O)OC(=O)C12CCC(C(=C)C)C1C1CCC3C4(C)CCC(O)C(C)(C)C4CCC3(C)C1(C)CC2 (stereo not drawn) [MJ1101-RS] | – | – | – | >2.5 | >10 | >1 | >4 | 0.43 | 1.7 | 4.0 | 2.5 | >10 | – | – | –
C=CC(=O)OC(=O)C12CCC(C(C)C)C1C1CCC3C4(C)CCC(O)C(C)(C)C4CCC3(C)C1(C)CC2 (stereo not drawn) [MJ1103-RS] | – | – | – | >2.0 | >4 | 0.75 | 1.5 | 2.0 | 4 | 2.0 | 5.0 | 10 | – | – | –
C=C(C)C1CCC2(C(=O)O)CCC3(C)C(CCC4C5(C)CCC(OC(=O)c6ccc(CCCCC)cc6)C(C)(C)C5CCC43C)C12 (stereo not drawn) [MJ1104-RS] | – | – | – | 1.05 | 2 | >2.1 | >4 | 3.1 | 5.9 | 1.9 | 1.84 | 3.5 | – | – | –
C=C(C)C1CCC2(C(=O)O)CCC3(C)C(CCC4C5(C)CCC(OC(=O)Cc6cc(OC)ccc6OC)C(C)(C)C5CCC43C)C12 (stereo not drawn) [MJ1108-RS] | – | – | – | 0.55 | 1 | – | – | 2.5 | 4.6 | 1.8 | >5.6 | >10 | – | – | –
C=C(C)C1CCC2(C(=O)O)CCC3(C)C(CCC4C5(C)CCC(OC(=O)c6ccc(CCCCCCC)cc6)C(C)(C)C5CCC43C)C12 (stereo not drawn) [MJ1138-RS] | – | – | – | >5.8 | >10 | >2.3 | >4 | 4.1 | 7 | 1.7 | >5.89 | >10 | – | – | –
